# Measured values taken from PubChem BioAssay (NCI).
# “And” between values parts separate entries of the source, which are not always exact repeats. Equal entries are not always repeated.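 Five concentrations, 48 hours, 96-well plates. GI50 marks 50% less growth. TGI marks complete inhibition of growth.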
# Legend:
# Test in all cases: NCI-60 cell line screen, 48 h
# [1] = tested on: SNB-19 CNS
# [2] = tested on: SF-268 CNS
# [3] = tested on: UACC-62 melanoma
# [4] = tested on: COLO 205 colon
# [5] = tested on: HT29 colon
# [6] = tested on: SK-MEL-2 melanoma
# [7] = tested on: U251 CNS
# [8] = tested on: KM12 colon
# [9] = tested on: SW-620 colon
# [10] = tested on: NCI-H522 lung
SMILES,GI50 [1],TGI [1],GI50 [2],TGI [2],GI50 [3],TGI [3],GI50 [4],TGI [4],GI50 [5],TGI [5],GI50 [6],TGI [6],GI50 [7],TGI [7],GI50 [8],TGI [8],GI50 [9],TGI [9],GI50 [10],TGI [10]
COc1ccc(NC(=O)Nc2n[nH]c3ccccc23)cc1,> 100 µM,> 100 µM,> 100 µM,> 100 µM,> 100 µM,> 100 µM,> 100 µM,> 100 µM,> 100 µM,> 100 µM,> 100 µM,> 100 µM,> 100 µM,> 100 µM,> 100 µM,> 100 µM,> 100 µM,> 100 µM,> 100 µM,> 100 µM
CCCCCCCCCCCCCCCC(=O)NCC(COP(=O)([O-])OCC[N+](C)(C)C)OCC (stereo unspecified),–,11 µM,–,27 µM,–,22.3 µM,–,5.1 µM,–,16.3 µM,–,–,–,14.4 µM,–,3.01 µM,–,27.4 µM,–,–
CCOC(=O)CC1=Nc2ccccc2SC1,–,> 100 µM,–,1.56 µM,–,> 100 µM,–,> 100 µM,–,> 100 µM,–,> 100 µM,–,> 100 µM,–,> 100 µM,–,> 100 µM,–,> 100 µM
Cc1cc([C@@H](C)Nc2ccccc2C(=O)O)c2nc(N3CCOCC3)cc(=O)n2c1,> 10 µM,> 10 µM,> 10 µM,> 10 µM,0.627 µM,> 10 µM,> 10 µM,> 10 µM,> 10 µM,> 10 µM,> 10 µM,> 10 µM,> 10 µM,> 10 µM,> 10 µM,> 10 µM,> 10 µM,> 10 µM,> 10 µM,> 10 µM
COc1cc(/C=C\[N+](=O)[O-])ccc1O,4.92 µM,18 µM,3.44 µM,12.8 µM,1.78 µM,3.99 µM,2.36 µM,5.74 µM,2.98 µM,10.6 µM,2.8 µM,10.4 µM,2.99 µM,10.6 µM,4.93 µM,17.3 µM,2.1 µM,5.02 µM,1.3 µM,3.02 µM
CCCCCCCCCCCCC(=O)OC(c1cnco1)c1nc(C(O)CC(O)C(O)C(C)O)co1 (stereo unspecified),–,> 100 µM,4.56 µM,> 47.3 µM,0.896 µM,2.87 µM,0.587 µM,1.98 µM and 3.52 µM,1.1 µM,> 100 µM,4.79 µM,> 66 µM,0.72 µM,> 62.8 µM,0.359 µM,21.9 µM,0.566 µM,> 62.7 µM,3.18 µM,> 25.1 µM
O=C(Nc1cccc(-n2ccc3c(NC(=O)c4ccccc4)nccc32)c1)c1cccc(C(F)(F)F)c1,0.0453 µM,> 100 µM,0.0709 µM,12.4 µM,0.0386 µM,6.91 µM,–,–,0.0332 µM,0.388 µM,0.0547 µM,14.3 µM,0.0402 µM,6.16 µM,0.0341 µM,1.4 µM,0.0411 µM,13.4 µM,0.0199 µM,0.0759 µM
CCc1c2c(nc3cc4c(cc13)OCO4)-c1cc3c(c(=O)n1C2)COC(=O)[C@]3(O)CC,0.0164 µM,0.455 µM,0.00907 µM,0.622 µM,< 0.001 µM,0.195 µM and 0.409 µM,1.17 µM,> 100 µM,0.0537 µM,> 100 µM,–,–,–,–,0.184 µM and 0.191 µM,> 100 µM,–,> 100 µM,–,–
CC1(C)N=C(N)N=C(N)N1c1ccc(CCCCc2ccc(S(=O)(=O)F)cc2)cc1,2.58 µM,19.4 µM,0.704 µM,16.9 µM,0.368 µM,16.8 µM,2.28 µM,19.8 µM,0.4 µM,21.3 µM,4.91 µM,21.8 µM,0.467 µM,15 µM,0.601 µM,13 µM,0.415 µM,15.4 µM,2.43 µM,16.2 µM
N#Cc1c(NC(=O)c2cccc(C(F)(F)F)c2)sc2c1CCC(=O)C2,0.445 µM,2.36 µM,0.91 µM,5.9 µM,0.495 µM,2.14 µM,0.289 µM,0.809 µM,0.367 µM,2.47 µM,2.3 µM,6.35 µM,0.352 µM,1.58 µM,0.477 µM,1.95 µM,0.3 µM,1.83 µM,0.315 µM,1.65 µM
CCOc1ccc(S(=O)(=O)/N=C2\C=C(SCC(=O)O)C(=O)c3ccccc32)cc1,3.42 µM,12.1 µM,2.95 µM,12.2 µM,1.99 µM,3.8 µM,3.68 µM,14 µM,3.21 µM,13 µM,2.62 µM,5.8 µM,3.1 µM,9.23 µM,2.8 µM,10.3 µM,3.31 µM,11.1 µM,2.53 µM,6.63 µM
Cc1cc2nc3c4cc(Cl)ccc4n(CCN(C)C)c3nc2cc1C,1.92 µM,6.83 µM,1.93 µM,5.29 µM,1.65 µM,3.3 µM,1.28 µM,3.24 µM,1.13 µM,3.66 µM,2.08 µM,4.45 µM,1.43 µM,3.14 µM,1.55 µM,3.17 µM,0.821 µM,2.25 µM,1.41 µM,3.27 µM
O=C1NC2(CCCC2)C(=O)C12CCCC2,–,> 100 µM,–,> 100 µM,–,> 100 µM,–,> 100 µM,–,> 100 µM,–,> 100 µM,–,> 100 µM,–,> 100 µM,–,> 100 µM,–,> 100 µM
C[C@@H]1CC[C@H]2C(COCC3=C(C(F)(F)F)O[C@@H]4O[C@@]5(C)CC[C@H]6[C@H](C)CC[C@@H]3[C@@]46OO5)=C(C(F)(F)F)O[C@@H]3O[C@@]4(C)CC[C@@H]1[C@]32OO4,–,–,–,–,0.0609 µM,> 100 µM,< 0.01 µM,0.0835 µM,< 0.01 µM,> 100 µM,–,–,< 0.01 µM,> 100 µM,< 0.01 µM,> 100 µM,< 0.01 µM,> 100 µM,< 0.01 µM,0.073 µM
C=C1C(=O)O[C@H]2[C@H]1CC/C(CNC(=O)c1c[nH]c3ccc(F)cc13)=C\CC[C@@]1(C)O[C@@H]21,11.9 µM,26.1 µM,1.78 µM,4.45 µM,1.27 µM,3.03 µM,0.583 µM,2.14 µM,1.19 µM,2.91 µM,1.42 µM,3.09 µM,2.68 µM,7.94 µM,2.69 µM,10.2 µM,0.639 µM,2.1 µM,0.282 µM,1.31 µM
C1COCCN1.C1COCCN1.N.N.[Cl-].[Pt+2],> 100 µM,> 100 µM,–,–,> 100 µM,> 100 µM,> 100 µM,> 100 µM,–,–,> 100 µM,> 100 µM,> 100 µM,> 100 µM,–,–,> 100 µM,> 100 µM,> 100 µM,> 100 µM
FC(F)(F)c1nc(-c2ccccc2Cl)[nH]c1C(F)(F)F,–,8.27 µM,–,> 29.5 µM,–,3.8 µM,–,0.971 µM,–,4.22 µM,–,1.4 µM,–,3.08 µM,–,4.13 µM,–,6.63 µM,–,–

SMILES,GI50 [1],TGI [1],GI50 [2],TGI [2],GI50 [3],TGI [3],GI50 [4],TGI [4],GI50 [5],TGI [5],GI50 [6],TGI [6],GI50 [7],TGI [7],GI50 [8],TGI [8],GI50 [9],TGI [9],GI50 [10],TGI [10]
O=C(c1ccc2ccccc2c1)c1c(C(F)(F)F)n([O-])c2cc(Cl)c(Cl)cc2[n+]1=O,–,–,1.85 µM,3.96 µM,1.61 µM,2.96 µM,–,–,1.49 µM,2.81 µM,1.64 µM,2.99 µM,1.61 µM,2.96 µM,1.53 µM,2.86 µM,1.63 µM,2.98 µM,1.49 µM,2.81 µM
COC(=O)C(c1[nH]nc2ccccc12)C(C(=O)OC)c1[nH]nc2ccccc12 (stereo unspecified),–,> 100 µM,–,> 100 µM,–,> 100 µM,–,–,–,> 100 µM,–,–,–,> 100 µM,–,> 100 µM,–,33.7 µM,–,–
COc1ccc2cc1Oc1ccc(cc1)C[C@H]1c3cc(c(OC)cc3CCN1C)Oc1c(OC)c(OC)cc3c1[C@H](C2)N(C)CC3,7.55 µM,13 µM and 20.1 µM and 60.6 µM,12.6 µM,16.5 µM and 25.1 µM and > 100 µM,–,–,–,–,–,–,–,–,3.92 µM,15.1 µM and 13.5 µM and > 100 µM,–,–,–,–,3.27 µM,14.9 µM and 12.2 µM and > 100 µM
CCOc1ccc(NC(=O)CC2Sc3ccccc3NC2=O)cc1 (stereo unspecified),–,> 100 µM,–,> 100 µM,–,> 100 µM,–,> 100 µM,–,> 100 µM,–,–,–,> 100 µM,–,95.2 µM,–,33.5 µM,–,> 100 µM
COC(=O)C(C#N)=C1c2ccccc2Oc2ccccc21,–,> 100 µM,–,> 100 µM,–,> 100 µM,–,> 100 µM,–,> 100 µM,–,> 100 µM,–,–,–,> 100 µM,–,> 100 µM,–,77.3 µM
O=C(C#Cc1c[nH]c(=O)[nH]c1=O)c1ccccc1Cl,–,> 100 µM,–,41.4 µM,–,38.6 µM,–,29.8 µM,–,96.9 µM,–,29.9 µM,–,35.1 µM,–,88.4 µM,–,27.2 µM,–,–
Cc1cc(=O)cc2sc3c(C)cccc3nc1-2,–,> 100 µM,–,26.3 µM,–,–,–,32.6 µM,–,> 100 µM,–,43.9 µM,–,> 100 µM,–,48.2 µM,–,17.7 µM,–,> 100 µM
CCOC(=O)C1(CC)CCCCC(=O)N1 (stereo unspecified),–,–,–,> 100 µM,–,> 100 µM,–,> 100 µM,–,> 100 µM,–,–,–,> 100 µM,–,–,–,> 100 µM,–,–
O=C1/C(=C/c2ccc(F)cc2)CCOc2ccc([N+](=O)[O-])cc21,4.26 µM,16.2 µM,22.3 µM,53.2 µM,2.19 µM,4.01 µM,18.8 µM,35 µM,–,–,3.17 µM,11.6 µM,40.1 µM,> 100 µM,1.83 µM,4.4 µM,1.35 µM,4.04 µM,1.91 µM,4.14 µM
O=C(/C=C/c1ccc(Cl)cc1)c1ccc(Cl)cc1Cl,13.3 µM,29.5 µM,10.1 µM,21.8 µM,1.28 µM,12.4 µM,12.1 µM,30.8 µM,–,–,9.55 µM,18.9 µM,7.23 µM,14.1 µM,5.73 µM,13.8 µM,1.88 µM,6.31 µM,8.15 µM,16.8 µM
N#Cc1c(-c2cccs2)c2c(=S)[nH]c(=S)[nH]c2[nH]c1=S,75.7 µM,> 100 µM,32.4 µM,67.2 µM,36.3 µM,> 100 µM,28.8 µM,> 100 µM,–,–,32.9 µM,80.9 µM,30.2 µM,> 100 µM,28.6 µM,> 100 µM,32.8 µM,81 µM,29.1 µM,79 µM
C#Cc1cnc(=O)n(C2CC(O)C(CO)O2)c1 (stereo unspecified),–,> 23 µM,> 100 µM,> 100 µM,> 100 µM,> 100 µM,> 100 µM,> 100 µM,–,–,> 100 µM,> 100 µM,> 100 µM,> 100 µM,> 100 µM,> 100 µM,> 100 µM,> 100 µM,> 100 µM,> 100 µM
CCC(C)C1NC(=O)c2nc(oc2-c2ccccc2)-c2csc(n2)-c2csc(n2)-c2nc(oc2C)-c2coc(n2)CNC(=O)C(C(C)CC)NC1=O (stereo unspecified),–,–,0.0249 µM,0.154 µM,–,–,–,–,–,–,–,–,0.0126 µM,0.0492 µM,0.0223 µM,0.119 µM,–,0.0324 µM,–,–
O=C1CCCN(c2ccccc2)N1,–,> 100 µM,–,> 100 µM,–,> 100 µM,–,–,–,> 100 µM,–,> 100 µM,–,> 100 µM,–,> 100 µM,–,> 100 µM,–,> 100 µM
Cc1ccccc1C(C#N)C(=O)C(=O)Nc1nc([N+](=O)[O-])cs1 (stereo unspecified),–,> 100 µM,–,> 100 µM,–,> 100 µM,–,–,–,> 100 µM,–,–,–,> 100 µM,–,> 100 µM,–,> 100 µM,–,> 100 µM
C=CCSC[C@H](NC(=O)COc1ccccc1)C(=O)NC(C(=O)OCc1ccc([N+](=O)[O-])cc1)=C(C)C,–,–,–,> 100 µM,–,> 100 µM,–,39 µM,–,> 100 µM,–,> 100 µM,–,> 100 µM,–,> 100 µM,–,–,–,> 100 µM
